The structures appear in SMILES notation. Some results are limits rather than exact numbers.

By IC50 is commonly meant the concentration at which inhibition is half-maximal.

In assay [1] the target is T1, Polyunsaturated fatty acid 5-lipoxygenase (Homo sapiens) (UniProt P09917).
T1 sequence (whole entry): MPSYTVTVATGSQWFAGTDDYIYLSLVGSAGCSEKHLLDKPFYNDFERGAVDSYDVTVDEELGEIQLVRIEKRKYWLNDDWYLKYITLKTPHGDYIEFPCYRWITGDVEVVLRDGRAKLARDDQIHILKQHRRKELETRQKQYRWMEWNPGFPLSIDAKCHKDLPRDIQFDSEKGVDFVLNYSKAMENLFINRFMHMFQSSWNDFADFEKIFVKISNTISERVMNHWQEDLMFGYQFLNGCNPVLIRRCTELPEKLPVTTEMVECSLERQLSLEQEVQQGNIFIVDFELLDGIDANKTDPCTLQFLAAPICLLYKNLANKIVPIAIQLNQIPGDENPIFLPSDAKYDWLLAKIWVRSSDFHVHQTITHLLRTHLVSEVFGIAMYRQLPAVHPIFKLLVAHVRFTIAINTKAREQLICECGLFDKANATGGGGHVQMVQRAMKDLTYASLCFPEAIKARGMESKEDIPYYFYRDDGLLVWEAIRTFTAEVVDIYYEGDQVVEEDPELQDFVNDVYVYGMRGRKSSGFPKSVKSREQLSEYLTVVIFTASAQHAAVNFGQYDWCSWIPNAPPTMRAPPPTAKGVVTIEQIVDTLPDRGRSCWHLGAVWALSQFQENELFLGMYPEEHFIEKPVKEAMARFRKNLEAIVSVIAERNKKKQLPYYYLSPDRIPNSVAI
The experiment in a line: Inhibition of human recombinant 5-LOX expressed in insect cells assessed residual activity using arachidonic acid at 42 uM as substrate preincubated for 5 mins followed by substrate addition measured after 20 mins in dark by ferric ion oxidation-xylenol orange method relative to control.

The target in assay [2] is T2, Polyunsaturated fatty acid lipoxygenase ALOX15B (Homo sapiens, UniProt O15296).
T2 sequence (O15296 whole entry): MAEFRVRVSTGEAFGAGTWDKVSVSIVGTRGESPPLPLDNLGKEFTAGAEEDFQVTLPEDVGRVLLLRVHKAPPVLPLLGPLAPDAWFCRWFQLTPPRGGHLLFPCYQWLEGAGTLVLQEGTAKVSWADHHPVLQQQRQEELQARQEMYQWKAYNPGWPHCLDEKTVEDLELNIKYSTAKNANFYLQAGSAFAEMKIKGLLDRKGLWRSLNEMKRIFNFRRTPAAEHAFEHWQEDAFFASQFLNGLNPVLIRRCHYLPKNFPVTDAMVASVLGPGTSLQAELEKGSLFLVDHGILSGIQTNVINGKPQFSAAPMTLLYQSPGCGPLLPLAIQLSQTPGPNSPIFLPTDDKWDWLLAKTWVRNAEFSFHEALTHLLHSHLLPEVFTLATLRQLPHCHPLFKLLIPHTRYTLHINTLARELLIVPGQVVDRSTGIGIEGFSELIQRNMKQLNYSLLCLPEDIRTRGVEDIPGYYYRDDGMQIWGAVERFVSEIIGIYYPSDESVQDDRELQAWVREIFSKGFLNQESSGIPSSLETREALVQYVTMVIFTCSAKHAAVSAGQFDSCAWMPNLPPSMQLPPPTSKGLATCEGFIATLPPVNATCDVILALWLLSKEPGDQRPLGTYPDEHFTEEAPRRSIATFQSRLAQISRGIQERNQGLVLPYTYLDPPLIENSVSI
The assay is described as follows: Inhibition of human recombinant N-terminal His-tagged 15-LOX2 expressed in Escherichia coli using arachidonic acid as substrate preincubated for 5 mins followed by substrate addition measured after 20 mins in dark by ferric ion oxidation-xylenol orange assay.

In assay [3] the target is T3, Prostaglandin G/H synthase 2 (Homo sapiens, UniProt P35354).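 Note: recombinant enzyme produced in baculovirus-infected Sf21 cells, arachidonic acid substrate, PGE2 output quantified by LC-MS after 45 min, compounds preincubated 10 min beforehand, lower PGE2 means inhibition.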
T3 sequence (P35354 whole entry): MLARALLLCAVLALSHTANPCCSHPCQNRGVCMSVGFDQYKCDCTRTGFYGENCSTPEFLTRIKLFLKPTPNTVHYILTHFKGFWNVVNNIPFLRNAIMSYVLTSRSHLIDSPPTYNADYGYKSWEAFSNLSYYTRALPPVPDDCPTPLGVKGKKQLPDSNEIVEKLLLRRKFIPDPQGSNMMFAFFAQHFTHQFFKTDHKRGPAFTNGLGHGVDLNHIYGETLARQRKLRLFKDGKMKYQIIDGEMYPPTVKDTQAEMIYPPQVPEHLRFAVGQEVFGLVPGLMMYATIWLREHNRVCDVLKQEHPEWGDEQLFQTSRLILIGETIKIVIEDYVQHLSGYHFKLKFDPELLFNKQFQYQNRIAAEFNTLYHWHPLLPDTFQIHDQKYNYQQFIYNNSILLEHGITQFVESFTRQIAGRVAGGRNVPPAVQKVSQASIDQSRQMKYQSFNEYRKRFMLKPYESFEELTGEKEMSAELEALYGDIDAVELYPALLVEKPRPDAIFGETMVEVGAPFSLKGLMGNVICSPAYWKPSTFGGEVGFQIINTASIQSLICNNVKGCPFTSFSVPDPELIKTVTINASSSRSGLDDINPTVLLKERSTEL
The assay is described as follows: biochemical. The class given is cell-based, Sf21.
Description: Inhibition of human recombinant COX2 expressed in baculovirus infected sf21 cells assessed as decrease in PGE2 formation using arachidonic acid as substrate preincubated for 10 mins followed by substrate addition measured after 45 mins by LC-MS analysis

Assay [4] addresses T4, Polyunsaturated fatty acid lipoxygenase ALOX15B (Homo sapiens) (UniProt O15296).
T4 sequence (whole entry): T2 sequence (O15296 whole entry)
The assay is described as follows: Inhibition of human recombinant N-terminal His-tagged 15-LOX2 expressed in Escherichia coli assessed as residual activity at 42 uM using arachidonic acid as substrate preincubated for 5 mins followed by substrate addition measured after 20 mins in dark by ferric ion oxidation-xylenol orange assay relative to control.

The target of assay [5] is T5, Polyunsaturated fatty acid 5-lipoxygenase (Homo sapiens, UniProt P09917).
T5 sequence (P09917 whole entry): T1 sequence (whole entry)
The assay is described as follows: Inhibition of human recombinant 5-LOX expressed in insect cells assessed as decrease in production of 5-HPETE and 5-HETE using arachidonic acid as substrate preincubated for 5 mins followed by substrate addition measured after 20 mins in dark by ferric ion oxidation-xylenol orange method.

In the case of `CC1(C)CC[C@]2(C)CC[C@]3(C)C(=CC[C@@H]4[C@@]5(C)CC[C@@H](O)[C@](C)(C(=O)O)[C@@H]5CC[C@]43C)[C@@H]2C1`, the results for the Activity in assay [1] and in assay [4] were 48.7% and 100%, respectively. Besides, the half-maximal inhibitory concentration (IC50) result was “Not Active” in assay [2] and > 40 µM in assay [3] (read-out: IC50).
In the same order, the values of `CC1(C)CC[C@]2(C(=O)O)CC[C@]3(C)C(=CC[C@@H]4[C@@]5(C)C[C@@H](O)[C@H](O)[C@@](C)(CO)[C@@H]5CC[C@]43C)[C@@H]2C1` [ARJUNOLIC ACID] are 47.7%, 100%, “Not Active” and > 40 µM.
The corresponding values for `CC1(C)[C@@H](O)CC[C@]2(C)[C@H]3CC=C4[C@@H]5C[C@@](C)(C(=O)O)CC[C@]5(C)CC[C@@]4(C)[C@]3(C)CC[C@@H]12` are 49%, 100%, “Not Active” and > 40 µM.
Turning to `CC1(C)CC[C@]2(C)CC[C@]3(C)C(=CC[C@@H]4[C@@]5(C)CCC(=O)C(C)(C)[C@@H]5CC[C@]43C)[C@@H]2C1`, the Activity in assay [1] and in assay [4] was 100% each time. Also, the IC50 result in assay [5], in assay [2] and in assay [3] (sf21) was “Not Active” in each case.
On to `CC(=O)O[C@@H]1CC[C@@]2(C)[C@@H](CC[C@]3(C)[C@@H]2CC=C2[C@@H]4[C@@H](C)[C@H](C)CC[C@]4(C)CC[C@]23C)[C@@]1(C)C(=O)O`, for which the Activity in assay [1] is 69.5%; in assay [4], 24.9%. The IC50 in assay [5] (read-out: IC50) is > 40 µM; in assay [2] (read-out: IC50), 12.2 µM; in assay [3] (read-out: IC50) it was > 40 µM.
For `CC(=O)O[C@@H]1CC[C@@]2(C)[C@@H](CC[C@]3(C)[C@@H]2C(=O)C=C2[C@@H]4[C@@H](C)[C@H](C)CC[C@]4(C)CC[C@]23C)[C@@]1(C)C(=O)O` [AKBA], the Activity in assay [1] amounted to 41.2%; in assay [4], 81.7%. Moreover, the IC50 is 35.6 µM in assay [5] (read-out: IC50), > 40 µM in assay [2] (read-out: IC50) and > 40 µM in assay [3] (read-out: IC50).
For the compound `C[C@H]1[C@H](C)CC[C@]2(C)CC[C@]3(C)C(=CC[C@@H]4[C@@]5(C)CC[C@@H](O)[C@](C)(C(=O)O)[C@@H]5CC[C@]43C)[C@H]12` [BOSWELLIC ACID], the Activity in assay [1] turned out to be 53.4%; in assay [4], 100%. The IC50 is > 40 µM in assay [5] (read-out: IC50), “Not Active” in assay [2] and > 40 µM in assay [3] (read-out: IC50).
Regarding `C[C@H]1[C@H](C)CC[C@]2(C(=O)O)CC[C@]3(C)C(=CC[C@@H]4[C@@]5(C)CC[C@H](O)C(C)(C)[C@@H]5CC[C@]43C)[C@H]12` [URSOLIC ACID], the Activity is 64% in assay [1] and 63.6% in assay [4]. Moreover, the IC50 in assay [5] (read-out: IC50), in assay [2] (read-out: IC50) and in assay [3] (read-out: IC50) was > 40 µM in each case.
Take `C[C@H]1[C@H](C)CC[C@]2(C(=O)O)CC[C@]3(C)C(=CC[C@@H]4[C@@]5(C)C[C@@H](O)[C@H](O)C(C)(C)[C@@H]5CC[C@]43C)[C@H]12` [COROSOLIC ACID]: the figures for the Activity in assay [1] and in assay [4] were 66.7% and 100%, respectively. Further, the IC50 was > 40 µM in assay [5] (read-out: IC50), “Not Active” in assay [2] and > 40 µM in assay [3] (read-out: IC50).
Take `CC(=O)O[C@@H]1CC[C@@]2(C)[C@@H](CC[C@]3(C)[C@@H]2CC=C2[C@@H]4CC(C)(C)CC[C@]4(C)CC[C@]23C)[C@@]1(C)C(=O)O`: the Activity in assay [1] is 93.1%; in assay [4], 100%. In addition, the IC50 in assay [5] (read-out: IC50) is > 40 µM; in assay [2] it was “Not Active”; in assay [3] (read-out: IC50), > 40 µM.
In the case of `CC1(C)CC[C@]2(C(=O)O)CC[C@]3(C)C(=CC[C@@H]4[C@@]5(C)CC[C@H](O)C(C)(C)[C@@H]5CC[C@]43C)[C@@H]2C1` [OLEANOLIC_ACID], the Activity in assay [1] and in assay [4] was 100% throughout. Besides, the IC50 result in assay [5] and in assay [2] was “Not Active” in each case.
In the case of `CC1(C)CC[C@]2(C(=O)O)CC[C@]3(C)C(=CC[C@@H]4[C@@]5(C)C[C@@H](O)[C@H](O)C(C)(C)[C@@H]5CC[C@]43C)[C@@H]2C1` [MASLINIC ACID], the Activity in assay [1] turned out to be 62.9%; in assay [4], 100%. The IC50 in assay [5] (read-out: IC50) was > 40 µM; in assay [2] it was “Not Active”; in assay [3] (read-out: IC50) it was > 40 µM.
Consider `CC(Cc1ccc(O)c(O)c1)C(C)Cc1ccc(O)c(O)c1` (configuration not stated), for which the Activity in assay [4] was determined as 31.4%.
For the compound `C[C@H]1[C@H](C)CC[C@]2(C)CC[C@]3(C)C(=CC(=O)[C@@H]4[C@@]5(C)CC[C@@H](O)[C@](C)(C(=O)O)[C@@H]5CC[C@]43C)[C@H]12` [11-KETO BOSWELLIC ACID], the Activity in assay [1] was found to be 31.9%; in assay [4], 100%. The IC50 was 28.3 µM in assay [5] (read-out: IC50), “Not Active” in assay [2] and > 40 µM in assay [3] (read-out: IC50).
The corresponding values for `C[C@H]1[C@H](C)CC[C@]2(C(=O)O)CC[C@]3(C)C(=CC[C@@H]4[C@@]5(C)C[C@@H](O)[C@H](O)[C@@](C)(CO)[C@@H]5CC[C@]43C)[C@H]12` [ASIATIC ACID] are 61.9%, 100%, > 40 µM, “Not Active” and > 40 µM.

These data come from ChEMBL document CHEMBL4414666, “Structure-Activity Relationships of Pentacyclic Triterpenoids as Inhibitors of Cyclooxygenase and Lipoxygenase Enzymes” (J Nat Prod, 2019).
